Source: patent publication US11965039B2, “Compstatin analogues and their medical uses” (priority 2018, dated 2024)
Read-outs that look alike come from different tables or passages of the source. Positions of bridges follow the written chain, without caps; N, C: chain ends. Non-standard residues stand in square brackets, D forms with d. Residues, ends and D or L forms follow the SMILES beside them. Trp(1-Me) = Cn1cc(C[C@H](N)C(=O)O)c2ccccc21; 1Nal = N[C@@H](Cc1cccc2ccccc12)C(=O)O; 2Nal = N[C@@H](Cc1ccc2ccccc2c1)C(=O)O; Sar = CNCC(=O)O

Columns and labels:
[1] = tested on: classical complement pathway; experiment: In vitro haemolysis assay (inhibition of classical complement pathway); format: cell-based, human; settings: human serum, sensitized sheep red blood cells
How it was run: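 Compound dilutions preincubated 15 min at room temperature with diluted human serum (titrated per batch for 70-90% maximal haemolysis), then antibody-sensitized sheep RBC (10^7/well) added for 30 min at 37 °C in Tris/casein buffer, pH 7.4. Stopped with EDTA; haemolysis read at 405 nm; IC50 by 4PL fit.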

[2] = Solubility test at 10 mg/mL (visual inspection and light scattering); format: physicochemical; settings: for Solubility, Condition 1: Acetate pH 4; for Solubility, Condition 2: Acetate pH 5; for Solubility, Condition 3: Phosphate pH 6; for Solubility, Condition 4: Phosphate pH 7; for Solubility, Condition 5: Phosphate pH 7.5
[3] = Table 3, given as upper bounds, read-out: IC50, inhibition of hemolysis

| Compound | IC50 [1, 3] | Solubility, Condition 1 [2] | Solubility, Condition 2 [2] | Solubility, Condition 3 [2] | Solubility, Condition 4 [2] | Solubility, Condition 5 [2] | IC50 ([1]; Table 4, valine 3 vs isoleucine 3 pairs, read-out: CP hemolysis IC50) |
| --- | --- | --- | --- | --- | --- | --- | --- |
| CC[C@H](C)[C@H](NC(=O)[C@H](C)NC(=O)[C@H](CO)NC(=O)CNC(=O)[C@H](CCC(=O)O)NC(C)=O)C(=O)N[C@H]1CSSC[C@@H](C(=O)N(C)CC(=O)N[C@@H](CCC(=O)O)C(N)=O)NC(=O)[C@H](CCCNC(=N)N)NC(=O)[C@H](Cc2c[nH]cn2)NC(=O)[C@H](CCC(=O)O)NC(=O)CNC(=O)[C@H](Cc2c[nH]c3ccccc23)NC(=O)[C@H](CC(=O)O)NC(=O)[C@H](CCC(N)=O)NC(=O)[C@H](Cc2ccc3ccccc3c2)NC(=O)[C@H]([C@@H](C)CC)NC1=O [Compound 50] (Ac-EGSAICI[2Nal]QDWGEHRC[Sar]E-NH2; disulfide 6-16) | < 100 nM | − (“−” denotes lack of solubility at the given condition, as UV absorbance at 340 nm exceeds 0.1 AU and/or it is visibly turbid or contains particles) | − (“−” denotes lack of solubility at the given condition, as UV absorbance at 340 nm exceeds 0.1 AU and/or it is visibly turbid or contains particles) | + (“+” denotes solubility at the given condition, as determined by UV absorbance being less than 0.1 AU at 340 nm and the sample being clear when manually inspected) | + (“+” denotes solubility at the given condition, as determined by UV absorbance being less than 0.1 AU at 340 nm and the sample being clear when manually inspected) | + (“+” denotes solubility at the given condition, as determined by UV absorbance being less than 0.1 AU at 340 nm and the sample being clear when manually inspected) |  |
| CC[C@H](C)[C@@H]1NC(=O)[C@@H](NC(=O)[C@H](Cc2ccccc2)NC(C)=O)CSSC[C@@H](C(=O)N[C@H](C(=O)NCC(=O)N[C@@H](C)C(=O)N[C@@H](CCC(=O)O)C(=O)N[C@@H](CO)C(N)=O)[C@@H](C)O)NC(=O)[C@H](CCCNC(=N)N)NC(=O)[C@H](Cc2c[nH]cn2)NC(=O)[C@H](CCC(=O)O)NC(=O)CNC(=O)[C@H](Cc2c[nH]c3ccccc23)NC(=O)[C@H](CC(=O)O)NC(=O)[C@H](CCC(N)=O)NC(=O)[C@H](Cc2cccc3ccccc23)NC1=O [Compound 63] (Ac-FCI[1Nal]QDWGEHRCTGAES-NH2; disulfide 2-12) | < 100 nM | − (“−” denotes lack of solubility at the given condition, as UV absorbance at 340 nm exceeds 0.1 AU and/or it is visibly turbid or contains particles) | − (“−” denotes lack of solubility at the given condition, as UV absorbance at 340 nm exceeds 0.1 AU and/or it is visibly turbid or contains particles) | + (“+” denotes solubility at the given condition, as determined by UV absorbance being less than 0.1 AU at 340 nm and the sample being clear when manually inspected) | + (“+” denotes solubility at the given condition, as determined by UV absorbance being less than 0.1 AU at 340 nm and the sample being clear when manually inspected) | + (“+” denotes solubility at the given condition, as determined by UV absorbance being less than 0.1 AU at 340 nm and the sample being clear when manually inspected) |  |
| CC[C@H](C)[C@H](NC(C)=O)C(=O)N[C@H]1CSSC[C@@H](C(=O)N[C@H](C(=O)NCC(=O)N[C@@H](C)C(=O)N[C@@H](CCC(=O)O)C(=O)N[C@@H](CO)C(N)=O)[C@@H](C)O)NC(=O)[C@H](CCCNC(=N)N)NC(=O)[C@H](Cc2c[nH]cn2)NC(=O)[C@H](CCC(=O)O)NC(=O)CNC(=O)[C@H](Cc2c[nH]c3ccccc23)NC(=O)[C@H](CC(=O)O)NC(=O)[C@H](CCC(N)=O)NC(=O)[C@H](Cc2c[nH]c3ccccc23)NC(=O)[C@H]([C@@H](C)CC)NC1=O [Compound 15] (Ac-ICIWQDWGEHRCTGAES-NH2; disulfide 2-12) | < 100 nM | + (“+” denotes solubility at the given condition, as determined by UV absorbance being less than 0.1 AU at 340 nm and the sample being clear when manually inspected) | − (“−” denotes lack of solubility at the given condition, as UV absorbance at 340 nm exceeds 0.1 AU and/or it is visibly turbid or contains particles) | − (“−” denotes lack of solubility at the given condition, as UV absorbance at 340 nm exceeds 0.1 AU and/or it is visibly turbid or contains particles) | + (“+” denotes solubility at the given condition, as determined by UV absorbance being less than 0.1 AU at 340 nm and the sample being clear when manually inspected) | + (“+” denotes solubility at the given condition, as determined by UV absorbance being less than 0.1 AU at 340 nm and the sample being clear when manually inspected) | 47 nM |
| CC[C@H](C)[C@H](NC(C)=O)C(=O)N[C@H]1CSSC[C@@H](C(=O)N[C@@H](CCC(=O)O)C(N)=O)NC(=O)[C@H](CCCNC(=N)N)NC(=O)[C@H](Cc2c[nH]cn2)NC(=O)[C@H](CCC(=O)O)NC(=O)CNC(=O)[C@H](Cc2c[nH]c3ccccc23)NC(=O)[C@H](CC(=O)O)NC(=O)[C@H](CCC(N)=O)NC(=O)[C@H](Cc2c[nH]c3ccccc23)NC(=O)[C@H]([C@@H](C)CC)NC1=O [Compound 22] (Ac-ICIWQDWGEHRCE-NH2; disulfide 2-12) | < 100 nM | + (“+” denotes solubility at the given condition, as determined by UV absorbance being less than 0.1 AU at 340 nm and the sample being clear when manually inspected) | − (“−” denotes lack of solubility at the given condition, as UV absorbance at 340 nm exceeds 0.1 AU and/or it is visibly turbid or contains particles) | − (“−” denotes lack of solubility at the given condition, as UV absorbance at 340 nm exceeds 0.1 AU and/or it is visibly turbid or contains particles) | + (“+” denotes solubility at the given condition, as determined by UV absorbance being less than 0.1 AU at 340 nm and the sample being clear when manually inspected) | + (“+” denotes solubility at the given condition, as determined by UV absorbance being less than 0.1 AU at 340 nm and the sample being clear when manually inspected) |  |
| CC[C@H](C)[C@@H]1NC(=O)[C@@H](NC(=O)[C@@H](NC(=O)[C@H](CCC(=O)O)NC(=O)[C@H](CO)NC(C)=O)[C@@H](C)CC)CSSC[C@@H](C(=O)N[C@H](C(=O)N[C@@H](CCC(=O)O)C(=O)N[C@@H](C)C(N)=O)[C@@H](C)O)NC(=O)[C@H](CCCNC(=N)N)NC(=O)[C@H](Cc2c[nH]cn2)NC(=O)[C@H](CCC(=O)O)NC(=O)CNC(=O)[C@H](Cc2c[nH]c3ccccc23)NC(=O)[C@H](CC(=O)O)NC(=O)[C@H](CCC(N)=O)NC(=O)[C@H](Cc2c[nH]c3ccccc23)NC1=O [Compound 32] (Ac-SEICIWQDWGEHRCTEA-NH2; disulfide 4-14) | < 100 nM | − (“−” denotes lack of solubility at the given condition, as UV absorbance at 340 nm exceeds 0.1 AU and/or it is visibly turbid or contains particles) | − (“−” denotes lack of solubility at the given condition, as UV absorbance at 340 nm exceeds 0.1 AU and/or it is visibly turbid or contains particles) | − (“−” denotes lack of solubility at the given condition, as UV absorbance at 340 nm exceeds 0.1 AU and/or it is visibly turbid or contains particles) | + (“+” denotes solubility at the given condition, as determined by UV absorbance being less than 0.1 AU at 340 nm and the sample being clear when manually inspected) | + (“+” denotes solubility at the given condition, as determined by UV absorbance being less than 0.1 AU at 340 nm and the sample being clear when manually inspected) |  |
| CC[C@H](C)[C@@H]1NC(=O)[C@@H](NC(=O)[C@H](Cc2ccccc2)NC(=O)[C@H](CCC(=O)O)NC(=O)[C@H](CO)NC(C)=O)CSSC[C@@H](C(=O)N(C)CC(=O)N[C@@H](CCC(=O)O)C(=O)N[C@@H](C)C(N)=O)NC(=O)[C@H](CCCNC(=N)N)NC(=O)[C@H](Cc2c[nH]cn2)NC(=O)[C@H](CCC(=O)O)NC(=O)CN(C)C(=O)[C@H](Cc2c[nH]c3ccccc23)NC(=O)[C@H](CC(=O)O)NC(=O)[C@H](CCC(N)=O)NC(=O)[C@H](Cc2cn(C)c3ccccc23)NC1=O [Compound 76, Ac-SEFC(1)I[1-Me-Trp]QDW[Sar]EHRC(1)[Sar]EA-NH2] (Ac-SEFCI[Trp(1-Me)]QDW[Sar]EHRC[Sar]EA-NH2; disulfide 4-14) | < 100 nM | − (“−” denotes lack of solubility at the given condition, as UV absorbance at 340 nm exceeds 0.1 AU and/or it is visibly turbid or contains particles) | − (“−” denotes lack of solubility at the given condition, as UV absorbance at 340 nm exceeds 0.1 AU and/or it is visibly turbid or contains particles) | + (“+” denotes solubility at the given condition, as determined by UV absorbance being less than 0.1 AU at 340 nm and the sample being clear when manually inspected) | + (“+” denotes solubility at the given condition, as determined by UV absorbance being less than 0.1 AU at 340 nm and the sample being clear when manually inspected) | + (“+” denotes solubility at the given condition, as determined by UV absorbance being less than 0.1 AU at 340 nm and the sample being clear when manually inspected) |  |
